This note sets out measurements from patent US20210252159A1, “CONJUGATES OF CARTILAGE-HOMING PEPTIDES” (priority 2018, published 2021).

A short description of data set [1]: Biodistribution in mice of stable peptide-TAA conjugate by whole body autoradiography (QWBA). Conditions: 100 nmol IV, 3 hours and 24 hours. It is filed as in vivo. As for the experimental part: Peptide(SEQ ID NO: 105)-^14C-Cys-TAA (38, the radiolabeled conjugate prepared in EXAMPLE 7) (“peptide(SEQ ID NO: 105)-^14C-Cys” is disclosed as SEQ ID NO: 512) or ^14C-Cys-TAA was resuspended in 5% DMSO in water. The amount of radioactivity per μ1 of solution was measured using liquid scintillation counting (LSC). Each compound was administered intravenously to mice at a dose of 12.4 μCi (100 nmol) and allowed to circulate for the designated time intervals. The mice were then humanely euthanized and carcasses were frozen in dry ice chilled hexane. QWBA was performed and quantified as described. […]
(§1) Quantification of the radioactivity detected in WBA samples was evaluated by measuring the pixel density/mm^2 (“SI”: Signal Intensity/Area−background) using AIDA Image Analyzer v 5.1 Whole Body Autoradiography Professional software (Raytest). […] For quantification, all visible knee or IVD (intervertebral disc) tissues for one rodent across all collected sections were measured and averaged together to generate one knee or IVD value per animal. […] To collect quantified values for other tissues, ROIs were drawn around blood in the heart ventricle, spinotrapezius muscle, the liver, or the kidney (including cortex and medulla) in all sections in which the tissue was observed and then averaged to yield one value per tissue per animal. […]

Data set [2] is described as follows: Rat CIA biodistribution study (QWBA). The data set is classed as in vivo. As to conditions: CIA rats. As for the experimental part:
50 uCi, 400 nmol of each compound was given intravenously (IV) through the tail vein and allowed to circulate 1 hour, 3 hours, or 24 hours. Rats were euthanized by CO2 asphyxiation, shaved, and frozen in dry ice chilled hexane. QWBA was performed and quantified as described.
Frozen carcasses were allowed to off gas hexane overnight at −20° and then embedded in chilled 2% carboxymethylcellulose (Sigma Aldrich) and sectioned sagittally at a thickness of 40 μm on an H/I Bright 8250 Cryostat (Hacker Instruments). Radioactive control guides were drilled into each block to verify even cutting depth along the length of the section. […]
as §1

A short description of data set [3]: Comparison of joint retention time among radiolabeled peptides (QWBA, knee and IVD). It is filed as in vivo. Further details: Peptide Signal Retention in Knee / Peptide Signal Retention in IVD: unit not given here. As for the experimental part:
Frozen carcasses were allowed to off gas hexane overnight at −20° and then embedded in chilled 2% carboxymethylcellulose (Sigma Aldrich) and sectioned sagittally at a thickness of 40 μm on an H/I Bright 8250 Cryostat (Hacker Instruments). Radioactive control guides were drilled into each block to verify even cutting depth along the length of the section. The radioactive guide consisted of ^14C-Glycine (American Radiolabeled Chemicals, “ARC”) at 0.5 uCi/ml in 0.5% BSA (Sigma Aldrich) in PBS. Sections were collected onto 4-inch wide tape (Scotch 821, ULINE) at 2-4 depths to sample approximately 30 tissues with particular focus on the knees and spine. Collected sections were freeze dried in the cryostat for 48-72 hours then mounted on sturdy paper and covered with a single protective layer of cellophane (Reynolds Food Service Film). Mounted sections were exposed to phosphor imager plates (Raytest) along with a radioactive standard Curve (1465-PL, ARC) for 7-days, scanned on a Raytest CR-35 at “25 μm sensitive” setting.
Quantification of the radioactivity detected in WBA samples was evaluated by measuring the pixel density/mm^2 (“SI”: Signal Intensity/Area−background) using AIDA Image Analyzer v 5.1 Whole Body Autoradiography Professional software (Raytest). Regions of interest (ROIs) were drawn manually around the entire visible tissue, comparing the sectioned sample to the autoradiogram. For quantification, all visible knee or IVD (intervertebral disc) tissues for one rodent across all collected sections were measured and averaged together to generate one knee or IVD value per animal. Typically were sampled 1-2 knee values (from femoral and tibial cartilage) per 1-2 sections per animal and 3-10 IVD per 1-2 sections per animal. To collect quantified values for other tissues, ROIs were drawn around blood in the heart ventricle, spinotrapezius muscle, the liver, or the kidney (including cortex and medulla) in all sections in which the tissue was observed and then averaged to yield one value per tissue per animal.
Data were presented as nmol of compound per gram of tissue. The commercial standard strips co-exposed with each WBA sample set were calibrated so that a known amount of radioactive counts per minute (CPM) per gram of tissue, determined by liquid scintillation counting (LSC), corresponded to the measured WBA SI at 11 standard strip concentration data points. The regression line of the log 10 transformed WBA signal intensity plotted against the log 10 transformed CPM/g gave a linear range of 1×10^5 to 7.5×10^7 WBA SI, corresponding to 6.3 nCi/g to 3.3 μCi/g. The log 10 concentration of radioactivity in each tissue (CPM/g) was interpolated from the standard curve, converted to linear values, and translated from CPM/g to uCi/g by interpolation against an LSC CPM to μCi standard curve. Uptake (nmol of compound/g of tissue) was determined by dividing the μCi/g tissue by the μCi/nmol specific activity of the peptide.
Peptide(SEQ ID NO: 105) was dosed at 57-60 nmol. Peptide(SEQ ID NO: 103) was dosed at 130 nmol. Peptide(SEQ ID NO: 184) was dosed at 150 nmol. […] It should be noted that detection of retention is based on an assay that detects radiolabeling of the N-terminus of each of the tested conjugates, thus decrease in signal over time may be due not only to peptide diffusion back out of the cartilage but also aminopeptidase-mediated removal of N-terminal amino acid, general peptide cleavage, or other mechanisms. Results as measured by QWBA methods described herein are shown in Tables 6 and 7 below and FIG. 11.

A short description of data set [4]: Immunohistochemistry of knee and ankle sections with anti-peptide(SEQ ID NO: 105) and anti-Dex antibodies. It is filed as in vivo, C57/Bl6 mice. As to conditions: mice, 100 nmol IV, three hours. The source says: Immunohistochemistry methods were developed to detect peptide(SEQ ID NO: 105) and dexamethasone in cartilage of joints using a generated rabbit polyclonal anti-peptide(SEQ ID NO: 105) antibody and a commercially available anti-Dex antibody (Abcam, ab35000). Standard immunization methods were used to generate the anti-peptide(SEQ ID NO: 105) polyclonal antibody, which increases the immunogenicity of the dosed material and are not representative of potential immunogenicity of the unmodified peptide or therapeutic candidate molecules. To produce the immunogen for peptide(SEQ ID NO: 105) antibody generation, peptide(SEQ ID NO: 105) was conjugated to keyhole limpet hemocyanin (KLH) using ImjectTMmcKLH. Peptide(SEQ ID NO: 105)-KLH was administered as part of a pool of other KLH-conjugated peptides emulsified with Freund's complete adjuvant and administered to New Zealand White Rabbits following a standard schedule. The polyclonal antibody was purified from the serum using a HiTrap® mAb Select cartridge (GE Healthcare). Western blot was used to confirm antibody binding to the peptide. […]

Data set [5] in a line: Resistance to chemical reduction (50 mM DTT, LC-MS). It is filed as physicochemical. As to conditions: 50 mM DTT for 60 minutes at room temperature. As for the experimental part:
The synthetically produced peptides were then analyzed side-by-side with peptides produced in the recombinant expression system as described above in EXAMPLE 1.

For “^14C-Cys-triamicinolone acetonide [^14C-Cys-TAA, reference compound]”, the “signal in cartilage (whole body autoradiography)” value in data set [1] was “no observable signal”.

For “GSGVPINVRCRGSRDCLDPCRRAGMRFGRCINSRCHCTP [peptide(SEQ ID NO: 105)]”, in data set [2] (400 nmol IV, 1, 3, 24 hrs, except liver and kidney), the “accumulation in other tissues of the body” value is “minimal accumulation”. In addition, the “signal in cartilage (whole body autoradiography)” value in data set [2] (400 nmol IV, 1 hr, 3 hrs, 24 hrs) is reported as “signal can be detected”. The “Peptide Signal Retention in IVD” value worked out at 44.42 in data set [3] (0.08 Hours); 101.41 in data set [3] (0.5 Hours); 100.00 in data set [3] (1 Hours); 106.39 in data set [3] (3 Hours); 81.45 in data set [3] (8 Hours); 36.89 in data set [3] (24 Hours). Besides, the “Peptide Signal Retention in IVD” value in data set [3] (48 Hours) came out at 19.96; in data set [3] (72 Hours), 13.43; in data set [3] (96 Hours) it was 9.17. The “Peptide Signal Retention in Knee” value in data set [3] (0.08 Hours) is on record as 91.00; in data set [3] (0.5 Hours), 102.49; in data set [3] (1 Hours), 100.00; in data set [3] (3 Hours) it was 72.64; in data set [3] (8 Hours), 42.42; in data set [3] (24 Hours) it was 22.61. The “Peptide Signal Retention in Knee” value in data set [3] (48 Hours) is 9.73; in data set [3] (72 Hours), 8.76; in data set [3] (96 Hours), 5.05. Also, the “Immunostaining with anti-peptide(SEQ ID NO: 105) antibody in articular cartilage and growth plates of knee joint sections” value in data set [4] is “strong positive staining”. Moreover, the “resistance to chemical reduction” value in data set [5] is given as “very little formation of a new peak”.
